*1 amine or outer side, *2 acyl side, *3 side chain or, on linkers, in order; H or OH if unused. Where a SMILES comes first, the peptide text is derived from it. Side-chain parts run from the residue outwards. [ ]: non-standard residue; d: D form. The star is where a group is joined. C18 diacid = O=C(O)CCCCCCCCCCCCCCCCC(=O)*; γGlu = O=C(O)[C@H](CCC(=O)[*:2])N[*:1]; Nle = CCCC[C@H](N)C(=O)O; Aib = CC(C)(N)C(=O)O
Legend:
[1] = Pharmacokinetic study in minipigs, terminal half-life after i.v. administration; format: in vivo; settings: female, Göttingen, minipig, plasma, iv, 5 nmol/kg; read-out: t1/2 (hours) harmonic mean (converted)
Protocol: This is done in a pharmacokinetic (PK) study, where the terminal half-life of the derivative in question is determined. By terminal half-life is generally meant the period of time it takes to halve a certain plasma concentration, measured after the initial distribution phase.
Female Göttingen minipigs were obtained from Ellegaard Göttingen Minipigs (Dalmose, Denmark) approximately 7-14 months of age and weighing from approximately 16-35 kg were used in the studies. The minipigs were housed individually and fed restrictedly once daily with SDS minipig diet (Special Diets Services, Essex, UK).
After at 3 weeks of acclimatisation two permanent central venous catheters were implanted in vena cava caudalis in each animal. The animals were allowed 1 week recovery after the surgery, and were then used for repeated pharmacokinetic studies with a suitable wash-out period between successive derivative dosing.
Blood samples (for example 0.8 ml) were collected in EDTA buffer (8 mM) and then centrifuged at 4° C. and 1942G for 10 minutes.
Individual plasma concentration-time profiles were analysed by a non-compartmental model in Phoenix WnNonLin ver. […] (Pharsight Inc., Mountain View, Calif., USA), and the resulting terminal half-lives (harmonic mean) determined.

human GIP receptor = biological target: T1, human GIP receptor (Homo sapiens, UniProt P48546); test: In vitro potency (CRE luciferase; whole cells), BHK CRE luc2P hGIPR; format: cell-based; settings: 0.2% HSA
T1 construct: expressed in transfected cells; host or cells: BHK (parent line BHKTS13), BHK CRE luc2P hGIPR clone #5
T1 sequence (P48546 22-466): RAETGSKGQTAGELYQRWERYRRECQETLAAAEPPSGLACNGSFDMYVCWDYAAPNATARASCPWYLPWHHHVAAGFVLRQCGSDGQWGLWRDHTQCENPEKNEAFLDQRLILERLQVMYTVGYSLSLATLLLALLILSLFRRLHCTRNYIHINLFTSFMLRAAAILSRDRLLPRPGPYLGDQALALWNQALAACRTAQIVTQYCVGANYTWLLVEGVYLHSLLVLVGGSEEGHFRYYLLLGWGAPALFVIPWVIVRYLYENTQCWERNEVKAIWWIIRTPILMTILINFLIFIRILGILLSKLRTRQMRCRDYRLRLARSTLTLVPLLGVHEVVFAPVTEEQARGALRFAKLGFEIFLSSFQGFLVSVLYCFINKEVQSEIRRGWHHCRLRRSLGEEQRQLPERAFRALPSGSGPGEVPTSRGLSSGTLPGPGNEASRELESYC
Method in brief: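 BHK clones carrying a CRE luciferase element, each transfected with one human receptor, were seeded at 5000 cells/well overnight. Compounds were diluted in buffer with 1% ovalbumin and 0.1% Pluronic F-68, with or without human serum albumin. Luminescence was read after steadylite plus; non-linear log(agonist)-response fit, averaged over at least two replicates.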

SMILES | half-life [1] | EC50 (human GIP receptor)
CCCC[C@H](NC(=O)[C@H](C)NC(=O)[C@@H](NC(=O)[C@H](CO)NC(=O)[C@H](Cc1ccc(O)cc1)NC(=O)[C@H](CC(=O)O)NC(=O)[C@H](CO)NC(=O)[C@@H](NC(=O)[C@H](Cc1ccccc1)NC(=O)[C@@H](NC(=O)CNC(=O)[C@H](CCC(=O)O)NC(=O)[C@H](C)NC(=O)[C@@H](Cc1ccc(O)cc1)NC(C)=O)[C@@H](C)O)[C@@H](C)CC)[C@@H](C)CC)C(=O)N[C@@H](CC(=O)O)C(=O)N[C@@H](CCCCN)C(=O)N[C@H](C(=O)N[C@@H](CCCNC(=N)N)C(=O)N[C@@H](CCC(N)=O)C(=O)N[C@@H](CCC(N)=O)C(=O)N[C@@H](CC(=O)O)C(=O)N[C@@H](Cc1ccccc1)C(=O)N[C@H](C(=O)N[C@@H](CCCCNC(=O)CC[C@H](NC(=O)CC[C@H](NC(=O)CC[C@H](NC(=O)CCCCCCCCCCCCCCCCC(=O)O)C(=O)O)C(=O)O)C(=O)O)C(=O)N[C@@H](Cc1c[nH]c2ccccc12)C(=O)N[C@@H](CC(C)C)C(=O)N[C@@H](CC(C)C)C(=O)N[C@@H](C)C(=O)N[C@@H](CCC(N)=O)C(=O)N[C@@H](CCCCN)C(=O)NCC(=O)O)C(C)C)[C@@H](C)CC [Compound 7, N{1}-acetyl, N{Epsilon-24}-[(4S)-4-carboxy-4-[[(4S)-4-carboxy-4-[[(4S)-4-carboxy-4-(17-carboxyheptadecanoylamino)butanoyl]amino]butanoyl]amino]butanoyl]-[D-Tyr1,Nle14,Arg18, Lys24]-hGIP(1-31)] | 84 h | 0.0489 nM
CCCC[C@H](NC(=O)[C@H](C)NC(=O)[C@@H](NC(=O)[C@H](CO)NC(=O)[C@H](Cc1ccc(O)cc1)NC(=O)[C@H](CC(=O)O)NC(=O)[C@H](CO)NC(=O)[C@@H](NC(=O)[C@H](Cc1ccccc1)NC(=O)[C@@H](NC(=O)CNC(=O)[C@H](CCC(=O)O)NC(=O)C(C)(C)NC(=O)[C@@H](N)Cc1ccc(O)cc1)[C@@H](C)O)[C@@H](C)CC)[C@@H](C)CC)C(=O)N[C@@H](CC(=O)O)C(=O)N[C@@H](CCCCN)C(=O)N[C@H](C(=O)N[C@@H](CCCNC(=N)N)C(=O)N[C@@H](CCC(N)=O)C(=O)NC(C)(C)C(=O)N[C@@H](CC(=O)O)C(=O)N[C@@H](Cc1ccccc1)C(=O)N[C@H](C(=O)N[C@@H](CCCCNC(=O)CC[C@H](NC(=O)CC[C@H](NC(=O)CC[C@H](NC(=O)CCCCCCCCCCCCCCCCC(=O)O)C(=O)O)C(=O)O)C(=O)O)C(=O)N[C@@H](Cc1c[nH]c2ccccc12)C(=O)N[C@@H](CC(C)C)C(=O)N[C@@H](CC(C)C)C(=O)N[C@@H](C)C(=O)N[C@@H](CCC(N)=O)C(=O)N[C@@H](CCCCN)C(=O)NCC(=O)O)C(C)C)[C@@H](C)CC [Compound 11, N{Epsilon-24}-[(4S)-4-carboxy-4-[[(4S)-4-carboxy-4-[[(4S)-4-carboxy-4-(17-carboxyheptadecanoylamino)butanoyl]amino]butanoyl]amino]butanoyl]-[Aib2,Nle14,Arg18,Aib20,Lys24]-hGIP(1-31)] (H-Y[Aib]EGTFISDYSIA[Nle]DKIRQ[Aib]DFVK([γGlu-γGlu-γGlu-C18 diacid])WLLAQKG-OH) | 89 h | 0.0094 nM
CCCC[C@H](NC(=O)[C@H](C)NC(=O)[C@@H](NC(=O)[C@H](CO)NC(=O)[C@H](Cc1ccc(O)cc1)NC(=O)[C@H](CC(=O)O)NC(=O)[C@H](CO)NC(=O)[C@@H](NC(=O)[C@H](Cc1ccccc1)NC(=O)[C@@H](NC(=O)CNC(=O)[C@H](CCC(=O)O)NC(=O)[C@H](C)NC(=O)[C@@H](Cc1ccc(O)cc1)NC(C)=O)[C@@H](C)O)[C@@H](C)CC)[C@@H](C)CC)C(=O)N[C@@H](CC(=O)O)C(=O)N[C@@H](CCCCN)C(=O)N[C@H](C(=O)N[C@@H](CCCNC(=N)N)C(=O)N[C@@H](CCC(N)=O)C(=O)N[C@@H](CCC(N)=O)C(=O)N[C@@H](CC(=O)O)C(=O)N[C@@H](Cc1ccccc1)C(=O)N[C@H](C(=O)N[C@@H](CCCCNC(=O)COCCOCCNC(=O)COCCOCCNC(=O)CC[C@H](NC(=O)CCCCCCCCCCCCCCCCC(=O)O)C(=O)O)C(=O)N[C@@H](Cc1c[nH]c2ccccc12)C(=O)N[C@@H](CC(C)C)C(=O)N[C@@H](CC(C)C)C(=O)N[C@@H](C)C(=O)N[C@@H](CCC(N)=O)C(=O)N[C@@H](CCCCN)C(=O)NCC(=O)O)C(C)C)[C@@H](C)CC [Compound 15, N{1}-acetyl,N{Epsilon-24}-[2-[2-[2-[[2-[2-[2-[[(4S)-4-carboxy-4-(17-carboxyheptadecanoylamino)butanoyl]amino]ethoxy]ethoxy]acetyl]amino]ethoxy]ethoxy]acetyl]-[D-Tyr1,Nle14,Arg18,Lys24]-hGIP(1-31)] | 81 h | 0.0304 nM
CCCC[C@H](NC(=O)[C@H](C)NC(=O)[C@@H](NC(=O)[C@H](CO)NC(=O)[C@H](Cc1ccc(O)cc1)NC(=O)[C@H](CC(=O)O)NC(=O)[C@H](CO)NC(=O)[C@@H](NC(=O)[C@H](Cc1ccccc1)NC(=O)[C@@H](NC(=O)CNC(=O)[C@H](CCC(=O)O)NC(=O)[C@H](C)NC(=O)[C@@H](Cc1ccc(O)cc1)NC(C)=O)[C@@H](C)O)[C@@H](C)CC)[C@@H](C)CC)C(=O)N[C@@H](CC(=O)O)C(=O)N[C@@H](CCCCN)C(=O)N[C@H](C(=O)N[C@@H](CCCNC(=N)N)C(=O)N[C@@H](CCC(N)=O)C(=O)N[C@@H](CCC(N)=O)C(=O)N[C@@H](CC(=O)O)C(=O)N[C@@H](Cc1ccccc1)C(=O)N[C@H](C(=O)N[C@@H](CCCCNC(=O)COCCOCCNC(=O)COCCOCCNC(=O)CC[C@H](NC(=O)CC[C@H](NC(=O)CC[C@H](NC(=O)CCCCCCCCCCCCCCCCC(=O)O)C(=O)O)C(=O)O)C(=O)O)C(=O)N[C@@H](Cc1c[nH]c2ccccc12)C(=O)N[C@@H](CC(C)C)C(=O)N[C@@H](CC(C)C)C(=O)N[C@@H](C)C(=O)N[C@@H](CCC(N)=O)C(=O)N[C@@H](CCCCN)C(=O)NCC(=O)O)C(C)C)[C@@H](C)CC [Compound 17, N{1}-acetyl,N{Epsilon-24}-[2-[2-[2-[[2-[2-[2-[[(4S)-4-carboxy-4-[[(4S)-4-carboxy-4-[[(4S)-4-carboxy-4-(17-carboxyheptadecanoylamino)butanoyl]amino]butanoyl]amino]-butanoyl]amino]ethoxy]ethoxy]acetyl]amino]ethoxy]ethoxy]acetyl]-[D-Tyr1,Nle14,Arg18,Lys24]-hGIP(1-31)] | 88 h | 0.0431 nM

— patent publication US10604555B2, “GIP derivatives and uses thereof” (priority 2018, dated 2020)
